Results from patent US4280001A, “Biologically pure culture” (priority 1976, dated 1981).
Bridge positions count the residues as written; N and C are the ends. Square brackets hold non-standard residues; d marks the D form. Peptide text beside a SMILES is read from it. * marks the point of attachment. Ileψ(thiazoline)Cys = CC[C@H](C)[C@H](N)C1=N[C@H](C(=O)*)CS1; dOrn = NCCC[C@@H](N)C(=O)O

How the values were obtained:
Format in all cases: cell-based
[1] = system: Staphylococcus aureus ATCC 6538 resistant to bacitracin; assay: microbe, parasite or virus in culture; conditions: ATCC6538
Excerpt: (§1) The new antibiotic substance is active also against microorganism strains which are resistant to other commonly used antibiotics.

[2] = system: Staphylococcus aureus ATCC 6538 resistant to cephaloridine; assay: microbe, parasite or virus in culture; conditions: ATCC6538
Excerpt: as §1

[3] = system: Staphylococcus aureus ATCC 6538 resistant to chloramphenicol; assay: microbe, parasite or virus in culture; conditions: ATCC6538
Excerpt: as §1

[4] = system: Staphylococcus aureus ATCC 6538 resistant to erythromycin; assay: microbe, parasite or virus in culture; conditions: ATCC6538
Excerpt: as §1

[5] = system: Staphylococcus aureus ATCC 6538 resistant to kanamycin; assay: MIC against resistant Staphylococcus aureus strains (Table III); conditions: ATCC6538
Excerpt: as §1

[6] = system: Staphylococcus aureus ATCC 6538 resistant to lincomycin; assay: microbe, parasite or virus in culture; conditions: ATCC6538
Excerpt: as §1

[7] = system: Staphylococcus aureus ATCC 6538 resistant to penicillin; assay: microbe, parasite or virus in culture; conditions: ATCC6538
Excerpt: as §1

[8] = system: Staphylococcus aureus ATCC 6538 resistant to rifampicin; assay: MIC against resistant Staphylococcus aureus strains (Table III); conditions: ATCC6538
Excerpt: as §1

[9] = system: Staphylococcus aureus Tour resistant to streptomycin; assay: as above; conditions: S. aureus Tour resistant to streptomycin
Excerpt: as §1

[10] = system: Staphylococcus aureus ATCC 6538 resistant to tetracycline; assay: as above; conditions: ATCC6538
Excerpt: as §1

[11] = system: Staphylococcus aureus ATCC 6538 resistant to neomycin; assay: as above; conditions: S. aureus ATCC 6538 resistant to neomycin
Excerpt: as §1

In the case of CC[C@H](C)[C@H](N)C1=N[C@H](C(=O)N[C@@H](CC(C)C)C(=O)N[C@H](CCC(=O)O)C(=O)N[C@H](C(=O)N[C@H]2CCCCNC(=O)[C@H](CC(N)=O)NC(=O)[C@@H](CC(=O)O)NC(=O)[C@H](Cc3cnc[nH]3)NC(=O)[C@@H](Cc3ccccc3)NC(=O)[C@H]([C@@H](C)CC)NC(=O)[C@@H](CCCN)NC2=O)[C@@H](C)CC)CS1 [bacitracin] ({Ileψ(thiazoline)Cys}-L[dE]IK[dOrn]I[dF]H[dD]N; lactam 4-C), the MIC [1] is reported as greater than 100 µg/mL.

O=C(Cc1cccs1)N[C@@H]1C(=O)N2C(C(=O)[O-])=C(C[n+]3ccccc3)CS[C@H]12 [cephaloridine] gave an MIC [2] greater than 100 µg/mL.

Compound O=C(N[C@H](CO)[C@H](O)c1ccc([N+](=O)[O-])cc1)C(Cl)Cl [chloramphenicol] has an MIC [3] greater than 100 µg/mL.

For CC[C@H]1OC(=O)[C@H](C)[C@@H](O[C@H]2C[C@@](C)(OC)[C@@H](O)[C@H](C)O2)[C@H](C)[C@@H](O[C@@H]2O[C@H](C)C[C@H](N(C)C)[C@H]2O)[C@](C)(O)C[C@@H](C)C(=O)[C@H](C)[C@@H](O)[C@]1(C)O [erythromycin], the MIC [4] was greater than 100 µg/mL.

In the case of NC[C@H]1O[C@H](O[C@H]2[C@H](O)[C@@H](O[C@H]3O[C@H](CO)[C@@H](O)[C@H](N)[C@H]3O)[C@H](N)C[C@@H]2N)[C@H](O)[C@@H](O)[C@@H]1O [kanamycin], the MIC [5] is reported as greater than 100 µg/mL.

CCC[C@@H]1C[C@@H](C(=O)N[C@@H]([C@H]2O[C@H](SC)[C@H](O)[C@@H](O)[C@H]2O)[C@@H](C)O)N(C)C1 [lincomycin] was tested, and the MIC [6] was greater than 100 µg/mL.

CC1(C)S[C@@H]2[C@H](NC(=O)Cc3ccccc3)C(=O)N2[C@H]1C(=O)O [penicillin] gave an MIC [7] greater than 100 µg/mL.

CO[C@H]1/C=C/O[C@@]2(C)Oc3c(C)c(O)c4c(O)c(c(/C=N/N5CCN(C)CC5)c(O)c4c3C2=O)NC(=O)/C(C)=C\C=C\[C@H](C)[C@H](O)[C@@H](C)[C@@H](O)[C@@H](C)[C@H](OC(C)=O)[C@@H]1C [rifampicin] was tested, and the MIC [8] was greater than 100 µg/mL.

Work on [H]/N=C(/N)N[C@H]1[C@H](O)[C@@H](O)[C@H](O[C@@H]2O[C@@H](C)[C@](O)(C=O)[C@H]2O[C@@H]2O[C@@H](CO)[C@H](O)[C@@H](O)[C@@H]2NC)[C@@H](N/C(N)=N\[H])[C@@H]1O [streptomycin] yielded an MIC [9] greater than 100 µg/mL.

With CN(C)C1C(=O)C(C(N)=O)=C(O)C2(O)C(=O)C3=C(O)c4c(O)cccc4C(C)(O)C3CC12 (centres unmarked) [tetracycline] the MIC [10] was greater than 100 µg/mL.

For neomycin, the MIC [11] was greater than 100 µg/mL.
